Test results reported in patent publication US20090298150A1, “PRODUCTION OF SQUALENE USING YEAST” (priority 2008, published 2009).

Legend:
[1] = test system: Cryptococcus curvatus; experiment: Cryptococcus curvatus growth on carbon sources (cell mass in culture); conditions: 12% w/v glycerol; Yeast Extract-based rich media; after 5 days
Experimental: Cryptococcus curvatus growth was evaluated to determine the best carbon sources to maximize its cell mass in culture. In a Yeast Extract-based rich media (10 g/L yeast extract, 20 g/L peptone), C. curvatus grew well in 2-20% w/v glucose, achieving a maximal level of 55 g/L cell dry weight (CDW) at 16% w/v glucose and above after 4 days. Similarly, C. curvatus grew in the same media with 3-12% w/v glycerol, achieving a CDW of 40 g/L in 12% w/v glycerol after 5 days. C. curvatus was also grown in Biodiesel glycerol (Imperial Western Products, Coachella, Calif.) up to 3.5% w/v, resulting in 23 g/L CDW.

[2] = test system: Yarrowia lipolytica ATCC 90904; experiment: Cultivation of Yarrowia lipolytica in CYM001 media with supplements; squalene and lipid production; assay type: cell-based; conditions: 30° C., 300 rpm, 120 h
Experimental: Environmental manipulations are tested to increase the net yield of squalene. These include (a) inhibiting ACCase expression and/or activity with oleic acid, olive or other vegetable oil(s), inositol, choline, soraphen, fluazifop, and clethodim or other ACCase inhibiting herbicides, (b) inhibiting squalene epoxidase expression and/or activity with terbinafine, tolnaftate, and ergosterol or other squalene epoxidase inhibiting fungicides, (c) manipulating the C/N ratio in glycerol-based media (in the starting media or by add-ins), (d) varying the nitrogen source in the media (organic vs. inorganic vs. simple/complex), (e) varying carbon addition regimes (e.g. batch vs. feeding), (f) examining the effect of depleting nutrients other than carbon source, (g) varying the carbon source to include mixtures of sugars, sugar alcohols, alcohols, polyalcohols, and organic acids, (h) selecting for growth on HMGR-inhibitory compounds such as lovastatin or other statin-type inhibitors, and (i) selecting for high oil production in culture using lipophillic dyes or stains and/or by analyzing for extractable lipids using, for example, gravimetric or gas chromatographic methods.
For example, Yarrowia lipolytica ATCC 90904 was cultivated in high Carbon/Nitrogen ratio media (C/N=420, Li, Y-H., Liu, B., Zhao, Z-B., and Bai, F-W. 2006 “Optimized Culture Medium and Fermentation Conditions for Lipid Production by Rhodosporidium toruloides” Chinese Journal of Biotechnology 22(4): 650-656) (hereinafter “CYM001 Media”) supplemented with 0 to 50 μg/ml terbinafine at 30° C., 300 rpm for 120 h. […]
In a further example, Yarrowia lipolytica ATCC 90904 was cultivated in CYM001 media supplemented with 0 to 200 μM clethodim at 30° C., 300 rpm for 120 h.

SMILES: OCC(O)CO [glycerol]
- cell dry weight (CDW) [1]: 40 g/L

SMILES: CN(C/C=C/C#CC(C)(C)C)Cc1cccc2ccccc12 [terbinafine]
- squalene as % of total lipid ([2]; 12.5 μg/ml or higher terbinafine, CYM001 Media): up to 18.5%

SMILES: CCSC(C)CC1CC(=O)C(/C(CC)=N/OC/C=C/Cl)=C(O)C1 (stereo not shown) [clethodim]
- increase in the yield (mg) of squalene per 60-ml flask ([2]; 200 μM clethodim, CYM001 media): 60 fold

SMILES: CCCCCCCC/C=C\CCCCCCCC(=O)O [Oleic acid]
- lipid accumulation, % lipid/CDW (cell dry weight) ([2]; 10 μl/ml Oleic acid, CYM001 media): 63.3 % lipid/CDW
